This is an account of results in ChEMBL document CHEMBL4017547, “Influences of Histidine-1 and Azaphenylalanine-4 on the Affinity, Anti-inflammatory, and Antiangiogenic Activities of Azapeptide Cluster of Differentiation 36 Receptor Modulators” (J Med Chem, 2017).

Activity calls are given as the source filed them. The calls are words filed in the database; no cut-off is given here. Starred links: 1 amine or outer side, 2 acyl side, 3 side chain; linkers in the order of their positions; H or OH if unused. Non-standard residues stand in square brackets, D forms with d. Residues, ends and D or L forms follow the SMILES beside them. dTrp(2-Me) = Cc1[nH]c2ccccc2c1C[C@@H](N)C(=O)O; azaTyr = O=C(N(Cc1ccc(O)cc1)N[*:1])[*:2]; azaPhe = O=C(N(Cc1ccccc1)N[*:1])[*:2]

For data set [1], the target named is Platelet glycoprotein 4 (Mus musculus) (UniProt Q08857). Description: Modulation of CD36 in mouse J774A.1 cells assessed as inhibition of R-FSL1-induced NO over production at 1 uM preincubated for 1 hr followed by overnight R-FSL1 stimulation by DAN-fluorescence assay relative to control. Type of data set: cell-based.
Data set [2] shares this target. Description: Modulation of CD36 in mouse […] cells assessed as inhibition of R-FSL1-induced NO over production at 1 uM preincubated for 1 hr followed by overnight R-FSL1 stimulation by DAN-fluorescence assay relative to control. Type of data set: cell-based.
The species entered for a further data set is Mus musculus. Nature of the data set: Anti-angiogenic activity in mouse sclera/choroid/retinal pigment epithelium complex assessed as reduction in microvascular sprouting at 1 uM after 24 hrs by microscopic analysis. Type of data set: functional.
Data set [3] addresses Platelet glycoprotein 4 (Rattus norvegicus) (UniProt Q07969). Nature of the data set: Inhibition of photoactivatable [125I]-Tyr-Bpa-Ala-hexarelin binding to CD36 in Sprague-Dawley rat heart membranes after 60 mins by SDS-PAGE analysis relative to H-His-D-Trp-Ala-aza(3-hydroxy)Phe-D-Phe-Lys-NH2. The format is cell membranes. The conditions noted are these: Membrane.
The target in another data set is Platelet glycoprotein 4 (Rattus norvegicus, UniProt Q07969). Description: Inhibition of photoactivatable [125I]-Tyr-Bpa-Ala-hexarelin binding to CD36 in Sprague-Dawley rat heart membranes after 60 mins by SDS-PAGE analysis. The format is cell membranes, Membrane.
The nature of data set [4]: Pro-angiogenic activity in mouse sclera/choroid/retinal pigment epithelium complex assessed as increase in microvascular sprouting at 1 uM after 24 hrs by microscopic analysis. The format is ADME.

Chain of Platelet glycoprotein 4 (Mus musculus) (Q08857 whole entry): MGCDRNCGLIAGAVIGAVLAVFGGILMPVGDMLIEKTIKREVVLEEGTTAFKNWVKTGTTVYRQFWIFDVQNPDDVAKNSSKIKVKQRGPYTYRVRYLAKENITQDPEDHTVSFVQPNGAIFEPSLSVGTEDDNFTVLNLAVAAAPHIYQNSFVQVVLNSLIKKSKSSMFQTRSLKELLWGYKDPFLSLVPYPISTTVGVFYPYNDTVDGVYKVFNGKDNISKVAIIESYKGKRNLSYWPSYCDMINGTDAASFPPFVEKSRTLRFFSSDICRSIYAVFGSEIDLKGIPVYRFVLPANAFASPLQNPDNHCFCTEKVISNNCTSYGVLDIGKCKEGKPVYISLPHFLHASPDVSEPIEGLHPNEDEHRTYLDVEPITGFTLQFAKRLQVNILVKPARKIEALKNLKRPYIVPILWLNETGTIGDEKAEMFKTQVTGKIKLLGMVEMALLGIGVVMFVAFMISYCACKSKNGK
Chain of Platelet glycoprotein 4 (Q07969 whole entry): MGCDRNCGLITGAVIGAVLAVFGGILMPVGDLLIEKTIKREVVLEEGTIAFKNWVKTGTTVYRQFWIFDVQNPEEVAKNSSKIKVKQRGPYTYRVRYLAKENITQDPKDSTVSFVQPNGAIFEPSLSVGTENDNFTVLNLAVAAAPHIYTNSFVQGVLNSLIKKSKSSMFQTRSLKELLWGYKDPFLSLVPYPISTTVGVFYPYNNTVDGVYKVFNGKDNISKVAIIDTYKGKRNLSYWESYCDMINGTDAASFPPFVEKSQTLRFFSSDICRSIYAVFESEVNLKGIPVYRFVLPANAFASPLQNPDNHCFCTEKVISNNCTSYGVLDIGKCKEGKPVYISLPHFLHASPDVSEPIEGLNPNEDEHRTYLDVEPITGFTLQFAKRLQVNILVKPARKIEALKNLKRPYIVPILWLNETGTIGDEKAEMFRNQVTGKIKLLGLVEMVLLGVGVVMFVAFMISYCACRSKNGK
Chain of Platelet glycoprotein 4 (Rattus norvegicus) (Q07969 whole entry): as above

`C[C@H](NC(=O)[C@@H](Cc1c[nH]c2ccccc12)NC(=O)[C@@H](N)Cc1cnc[nH]1)C(=O)NN(Cc1ccc([N+](=O)[O-])cc1)C(=O)N[C@H](Cc1ccccc1)C(=O)N[C@@H](CCCCN)C(N)=O`: the inhibition result in data set [1] and in data set [2] was “inactive” each time.
As to `C[C@H](NC(=O)[C@@H](Cc1c[nH]c2ccccc12)NC(=O)[C@@H](N)Cc1cnc[nH]1)C(=O)NN(Cc1ccc(O)cc1)C(=O)N[C@H](Cc1ccccc1)C(=O)N[C@@H](CCCCN)C(N)=O` (H-H[dW]A[azaTyr][dF]K-NH2), the inhibition result in data set [1] and in data set [2] was “inactive” each time. Moreover, in the data set listed under Mus musculus, the result was Active. Besides, the fold change (FC) in data set [3] worked out at 14.8. In addition, the IC50 – broadly, the concentration needed to halve the response being measured – on Platelet glycoprotein 4 stood at 1.9 µM.
As for `Cc1cc(F)cc(C)c1CN(NC(=O)[C@H](C)NC(=O)[C@@H](Cc1c[nH]c2ccccc12)NC(=O)[C@@H](N)Cc1cnc[nH]1)C(=O)N[C@H](Cc1ccccc1)C(=O)N[C@@H](CCCCN)C(N)=O`, the inhibition entry in data set [1] and in data set [2] was “Active” each time. Moreover, the result in the data set listed under Mus musculus was inactive. The fold change (FC) in data set [3] is 5. On Platelet glycoprotein 4, this compound showed an IC50 of 5.58 µM.
`C[C@H](N)C(=O)N[C@H](Cc1c[nH]c2ccccc12)C(=O)N[C@@H](C)C(=O)NN(Cc1ccc(C(F)(F)F)cc1)C(=O)N[C@H](Cc1ccccc1)C(=O)N[C@@H](CCCCN)C(N)=O`: the inhibition entry in data set [1] and in data set [2] was “inactive” throughout.
Consider `CC(C)Oc1ccc(CN(NC(=O)[C@H](C)NC(=O)[C@@H](Cc2c[nH]c3ccccc23)NC(=O)[C@@H](N)Cc2cnc[nH]2)C(=O)N[C@H](Cc2ccccc2)C(=O)N[C@@H](CCCCN)C(N)=O)cc1`, for which the inhibition result in data set [1] and in data set [2] was “inactive” each time.
On to `C[C@H](NC(=O)[C@@H](Cc1c[nH]c2ccccc12)NC(=O)[C@@H](N)Cc1cnc[nH]1)C(=O)NN(Cc1ccccc1)C(=O)N[C@H](Cc1ccccc1)C(=O)N[C@@H](CCCCN)C(N)=O` (H-H[dW]A[azaPhe][dF]K-NH2), for which the inhibition entry in data set [1] and in data set [2] was “inactive” in each case. Besides, the result in the data set filed under Mus musculus was inactive. For the same compound, the fold change (FC) in data set [3] is 2.8. On Platelet glycoprotein 4, this compound gave an IC50 of 10.1 µM.
On to `C[C@H](N)C(=O)N[C@H](Cc1c[nH]c2ccccc12)C(=O)N[C@@H](C)C(=O)NN(Cc1ccc(I)cc1)C(=O)N[C@H](Cc1ccccc1)C(=O)N[C@@H](CCCCN)C(N)=O`, for which the inhibition entry in data set [1] and in data set [2] was “inactive” in each case.
Consider `C[C@H](NC(=O)[C@@H](Cc1c[nH]c2ccccc12)NC(=O)[C@@H](N)Cc1cnc[nH]1)C(=O)NN(Cc1ccc(F)cc1)C(=O)N[C@H](Cc1ccccc1)C(=O)N[C@@H](CCCCN)C(N)=O`, for which the inhibition entry in data set [1] and in data set [2] was “Active” each time. In addition, the outcome in the data set listed under Mus musculus was Active. The fold change (FC) in data set [3] turned out to be 4.6. Besides, at Platelet glycoprotein 4, the IC50 came out at 6.06 µM.
On to `COc1cc(Cl)c(CN(NC(=O)[C@H](C)NC(=O)[C@@H](Cc2c[nH]c3ccccc23)NC(=O)[C@@H](N)Cc2cnc[nH]2)C(=O)N[C@H](Cc2ccccc2)C(=O)N[C@@H](CCCCN)C(N)=O)c(Cl)c1`, for which the inhibition entry in data set [1] and in data set [2] was “inactive” each time.
For `C[C@H](N)C(=O)N[C@H](Cc1c[nH]c2ccccc12)C(=O)N[C@@H](C)C(=O)NN(Cc1ccc(Cl)cc1)C(=O)N[C@H](Cc1ccccc1)C(=O)N[C@@H](CCCCN)C(N)=O`, the outcome in the data set listed under Mus musculus was Active. Moreover, in data set [3], the fold change (FC) was 5.7. This compound had an IC50 at Platelet glycoprotein 4 of 4.94 µM.
For `C[C@H](N)C(=O)N[C@H](Cc1c[nH]c2ccccc12)C(=O)N[C@@H](C)C(=O)NN(Cc1ccc([N+](=O)[O-])cc1)C(=O)N[C@H](Cc1ccccc1)C(=O)N[C@@H](CCCCN)C(N)=O`, the inhibition result in data set [1] and in data set [2] was “Active” throughout.
Take `C[C@H](NC(=O)[C@@H](Cc1c[nH]c2ccccc12)NC(=O)[C@@H](N)Cc1cnc[nH]1)C(=O)NN(Cc1ccc(Br)cc1)C(=O)N[C@H](Cc1ccccc1)C(=O)N[C@@H](CCCCN)C(N)=O`: the inhibition result in data set [1] and in data set [2] was “Active” in each case. Besides, the outcome in the data set filed under Mus musculus was Active. Besides, in data set [3], the fold change (FC) was determined as 7.8. The same compound registered an IC50 on Platelet glycoprotein 4 of 3.6 µM.
For `C[C@H](NC(=O)[C@@H](Cc1c[nH]c2ccccc12)NC(=O)[C@@H](N)Cc1cnc[nH]1)C(=O)NN(Cc1ccc(C(F)(F)F)cc1)C(=O)N[C@H](Cc1ccccc1)C(=O)N[C@@H](CCCCN)C(N)=O`, the inhibition result in data set [1] and in data set [2] was “inactive” in each case.
As for `C[C@H](N)C(=O)N[C@H](Cc1c[nH]c2ccccc12)C(=O)N[C@@H](C)C(=O)NN(Cc1ccc(Br)cc1)C(=O)N[C@H](Cc1ccccc1)C(=O)N[C@@H](CCCCN)C(N)=O`, in the data set listed under Mus musculus, the outcome was inactive. This compound also displayed a fold change (FC) in data set [3] of 2.2. The compound further came in with an IC50 on Platelet glycoprotein 4 of 12.5 µM.
As for `COc1ccc(CN(NC(=O)[C@H](C)NC(=O)[C@@H](Cc2c[nH]c3ccccc23)NC(=O)[C@H](C)N)C(=O)N[C@H](Cc2ccccc2)C(=O)N[C@@H](CCCCN)C(N)=O)cc1`, the inhibition result in data set [1] and in data set [2] was “Active” throughout.
Turning to `C[C@H](NC(=O)[C@@H](Cc1c[nH]c2ccccc12)NC(=O)[C@@H](N)Cc1cnc[nH]1)C(=O)NN(Cc1cccc(O)c1)C(=O)N[C@H](Cc1ccccc1)C(=O)N[C@@H](CCCCN)C(N)=O`, the inhibition entry in data set [1] and in data set [2] was “inactive” throughout. Also, in the data set listed under Mus musculus, the outcome was inactive. At Platelet glycoprotein 4, this compound showed an IC50 of 28.2 µM.
The compound `Cc1[nH]c2ccccc2c1C[C@@H](NC(=O)[C@@H](N)Cc1c[nH]cn1)C(=O)N[C@@H](C)C(=O)N[C@@H](Cc1c[nH]c2ccccc12)C(=O)N[C@H](Cc1ccccc1)C(=O)N[C@@H](CCCCN)C(N)=O` (H-H[dTrp(2-Me)]AW[dF]K-NH2) registered a fold change (FC) in data set [3] of 18.1.
With `C[C@H](N)C(=O)N[C@H](Cc1c[nH]c2ccccc12)C(=O)N[C@@H](C)C(=O)NN(Cc1ccccc1)C(=O)N[C@H](Cc1ccccc1)C(=O)N[C@@H](CCCCN)C(N)=O` (H-A[dW]A[azaPhe][dF]K-NH2), the inhibition entry in data set [1] and in data set [2] was “Active” each time. Also, in the data set listed under Mus musculus, the result was inactive. In addition, in data set [3], the fold change (FC) turned out to be 1.5. At Platelet glycoprotein 4, the IC50 came to 19 µM.
Turning to `COc1ccc(CN(NC(=O)[C@H](C)NC(=O)[C@@H](Cc2c[nH]c3ccccc23)NC(=O)[C@@H](N)Cc2cnc[nH]2)C(=O)N[C@H](Cc2ccccc2)C(=O)N[C@@H](CCCCN)C(N)=O)cc1`, the inhibition result in data set [1] and in data set [2] was “Active” throughout. Besides, the outcome in the data set listed under Mus musculus was Active. For the same compound, in data set [3], the fold change (FC) came to 3.7. For the same compound, the IC50 at Platelet glycoprotein 4 was 7.51 µM.
As to `C[C@H](NC(=O)[C@@H](Cc1c[nH]c2ccccc12)NC(=O)[C@@H](N)Cc1cnc[nH]1)C(=O)NN(Cc1c[nH]nn1)C(=O)N[C@H](Cc1ccccc1)C(=O)N[C@@H](CCCCN)C(N)=O`, the inhibition entry in data set [1] and in data set [2] was “inactive” throughout.
With `C[C@H](N)C(=O)N[C@H](Cc1c[nH]c2ccccc12)C(=O)N[C@@H](C)C(=O)NN(Cc1ccc(O)cc1)C(=O)N[C@H](Cc1ccccc1)C(=O)N[C@@H](CCCCN)C(N)=O` (H-A[dW]A[azaTyr][dF]K-NH2), the outcome in the data set listed under Mus musculus was inactive. The same compound gave a fold change (FC) in data set [3] of 3.1. Further, the IC50 at Platelet glycoprotein 4 worked out at 9.19 µM.
Regarding `CCCOc1ccc(CN(NC(=O)[C@H](C)NC(=O)[C@@H](Cc2c[nH]c3ccccc23)NC(=O)[C@@H](N)Cc2cnc[nH]2)C(=O)N[C@H](Cc2ccccc2)C(=O)N[C@@H](CCCCN)C(N)=O)cc1`, the inhibition entry in data set [1] and in data set [2] was “Active” each time. Besides, in data set [4], the Activity result is “Toxic”. Moreover, in data set [3], the fold change (FC) was 17.1. In addition, the half-maximal inhibitory concentration (IC50) on Platelet glycoprotein 4 came out at 1.65 µM.
Regarding `C[C@H](NC(=O)[C@@H](Cc1c[nH]c2ccccc12)NC(=O)[C@@H](N)Cc1cnc[nH]1)C(=O)NN(Cc1ccc(I)cc1)C(=O)N[C@H](Cc1ccccc1)C(=O)N[C@@H](CCCCN)C(N)=O`, the inhibition entry in data set [1] and in data set [2] was “inactive” throughout.
For the compound `Cc1cccc(C)c1CN(NC(=O)[C@H](C)NC(=O)[C@@H](Cc1c[nH]c2ccccc12)NC(=O)[C@@H](N)Cc1cnc[nH]1)C(=O)N[C@H](Cc1ccccc1)C(=O)N[C@@H](CCCCN)C(N)=O`, the inhibition result in data set [1] and in data set [2] was “Active” in each case. Besides, the outcome in the data set filed under Mus musculus was inactive. The same compound displayed a fold change (FC) in data set [3] of 5.1. Moreover, the IC50 on Platelet glycoprotein 4 amounted to 5.51 µM.
As for `C[C@H](NC(=O)[C@@H](Cc1c[nH]c2ccccc12)NC(=O)[C@@H](N)Cc1cnc[nH]1)C(=O)NN(CCCCCN)C(=O)N[C@H](Cc1ccccc1)C(=O)N[C@@H](CCCCN)C(N)=O`, the inhibition entry in data set [1] and in data set [2] was “inactive” throughout.
On to `C[C@H](NC(=O)[C@@H](Cc1c[nH]c2ccccc12)NC(=O)[C@@H](N)Cc1cnc[nH]1)C(=O)NN(Cc1c(F)cc(F)cc1F)C(=O)N[C@H](Cc1ccccc1)C(=O)N[C@@H](CCCCN)C(N)=O`, for which the inhibition result in data set [1] and in data set [2] was “inactive” each time.
As to `COc1cc(Cl)cc(Cl)c1CN(NC(=O)[C@H](C)NC(=O)[C@@H](Cc1c[nH]c2ccccc12)NC(=O)[C@@H](N)Cc1cnc[nH]1)C(=O)N[C@H](Cc1ccccc1)C(=O)N[C@@H](CCCCN)C(N)=O`, the inhibition result in data set [1] and in data set [2] was “inactive” throughout.
